Common to all, as to assay type: in vivo
The test system of experiment [1] is Beet Armyworm (Spodoptera exigua). Description: Bioassay on Beet Armyworm (BAW), 128-well diet tray assay. The note with it: Beet Armyworm, Table ABC, read-out: BAW rating. In short, it runs like this:
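Percent mortality, averaged over eight wells, was scored after five to seven days at 25° C under 14:10 light-dark. Each well's diet carried 50 μg/cm^2 of test molecule applied in acetone-water (90:10) and dried before one to five second-instar larvae were added.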

Experiment [2] relates to Cabbage Looper (Trichoplusia ni). Description: Bioassay on Cabbage Looper (CL), 128-well diet tray assay. As to conditions: Cabbage Looper, Table ABC, read-out: CL rating. The essentials: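 Mortality after five to seven days at 25° C (14:10 photoperiod), averaged over eight wells per compound. Diet in each well carried 50 μg/cm^2 of dried test molecule and received one to five second-instar larvae.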

In experiment [3] the test system is Yellow Fever Mosquito (Aedes aegypti). The experiment is described as follows: Bioassay on Yellow Fever Mosquito (YFM) larvae, 96-well plate. As to conditions: Table ABC. The essentials: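 About 1-day-old larvae in water with liver powder were added to wells holding compound from a 4000 ppm DMSO master diluted in 90:10 water:acetone. Plates covered and kept at room temperature for 3 days, then each well scored for mortality on a rating scale.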

Structures are written as SMILES.

As to `CCc1ccc(C(/C=C(\F)c2ccc(C(=O)N[C@H](C)C(=O)NCC(F)(F)F)c(C(F)(F)F)c2)C(F)(F)F)cc1Cl` (stereo partly drawn) [F164, 4-((Z)-3-(3-Chloro-4-ethylphenyl)-1,4,4,4-tetrafluorobut-1-en-1-yl)-N—((R)-1-oxo-1-((2,2,2-trifluoroethyl)amino)propan-2-yl)-2-(trifluoromethyl)benzamide], the pest or weed control at 50 µg/cm2 in experiment [1] and in experiment [2] was 50 to 100% each time. The YFM rating result in experiment [3] is reported as “B (More than 0-Less than 80)”.
With `CCc1ccc(C(/C=C(\F)c2ccc(C(=O)NCC(=O)NCC(F)(F)F)c(C(F)(F)F)c2)C(F)(F)F)cc1Cl` (stereo not drawn) [F165, (Z)-4-(3-(3-Chloro-4-ethylphenyl)-1,4,4,4-tetrafluorobut-1-en-1-yl)-N-(2-oxo-2-((2,2,2-trifluoroethyl)amino)ethyl)-2-(trifluoromethyl)benzamide], the pest or weed control at 50 µg/cm2 in experiment [1] and in experiment [2] was 50 to 100% in each case. In addition, the YFM rating result in experiment [3] is listed as “B (More than 0-Less than 80)”.
Take `C[C@@H](NC(=O)c1ccc(/C(F)=C/C(c2cc(Cl)c(Cl)c(Cl)c2)C(F)(F)F)cc1C(F)(F)F)C(=O)N(C)C` (stereo partly drawn) [F172, N—((R)-1-(Dimethylamino)-1-oxopropan-2-yl)-4-((Z)-1,4,4,4-tetrafluoro-3-(3,4,5-trichlorophenyl)but-1-en-1-yl)-2-(trifluoromethyl)benzamide]: the pest or weed control at 50 µg/cm2 in experiment [1] and in experiment [2] was 50 to 100% throughout. Also, the YFM rating entry in experiment [3] was “B (More than 0-Less than 80)”.
For `C[C@@H](NC(=O)c1ccc(/C(F)=C/C(c2ccc(C(F)(F)F)c(Cl)c2)C(F)(F)F)cc1C(F)(F)F)C(=O)NCC(F)(F)F` (stereo partly drawn) [F205, 4-((Z)-3-(3-Chloro-4-(trifluoromethyl)phenyl)-1,4,4,4-tetrafluorobut-1-en-1-yl)-N—((R)-1-oxo-1-((2,2,2-trifluoroethyl)amino)propan-2-yl)-2-(trifluoromethyl)benzamide], the pest or weed control at 50 µg/cm2 in experiment [1] and in experiment [2] was 50 to 100% throughout. For the same compound, the YFM rating result in experiment [3] was “B (More than 0-Less than 80)”.
Regarding `C[C@@H](NC(=O)c1ccc(/C(F)=C/C(c2ccc(C(F)(F)F)c(Br)c2)C(F)(F)F)cc1C(F)(F)F)C(=O)NCC(F)(F)F` (stereo partly drawn) [F208, 4-((Z)-3-(3-Bromo-4-(trifluoromethyl)phenyl)-1,4,4,4-tetrafluorobut-1-en-1-yl)-N—((R)-1-oxo-1-((2,2,2-trifluoroethyl)amino)propan-2-yl)-2-(trifluoromethyl)benzamide], the pest or weed control at 50 µg/cm2 in experiment [1] and in experiment [2] was 50 to 100% each time. In experiment [3], the YFM rating entry is recorded as “A (80-100)”.
Consider `O=C(CNC(=O)c1ccc(/C(F)=C/C(c2ccc(C(F)(F)F)c(Br)c2)C(F)(F)F)cc1C(F)(F)F)NCC(F)(F)F` (stereo not drawn) [F209, (Z)-4-(3-(3-Bromo-4-(trifluoromethyl)phenyl)-1,4,4,4-tetrafluorobut-1-en-1-yl)-N-(2-oxo-2-((2,2,2-trifluoroethyl)amino)ethyl)-2-(trifluoromethyl)benzamide], for which the pest or weed control at 50 µg/cm2 in experiment [1] and in experiment [2] was 50 to 100% throughout. In experiment [3], the YFM rating entry was “A (80-100)”.
Regarding `C[C@@H](NC(=O)c1ccc(/C(F)=C/C(c2ccc(C(F)(F)F)c(F)c2)C(F)(F)F)cc1C(F)(F)F)C(=O)NCC(F)(F)F` (stereo partly drawn) [F210], the pest or weed control at 50 µg/cm2 in experiment [1] and in experiment [2] was 50 to 100% each time. Further, the YFM rating result in experiment [3] is “B (More than 0-Less than 80)”.
Take `C[C@@H](NC(=O)c1ccc(/C(F)=C/C(c2cc(Cl)c(Cl)c(Cl)c2)C(F)(F)F)c2ccccc12)C(=O)NCC(F)(F)F` (stereo partly drawn) [PF1, N—((R)-1-Oxo-1-((2,2,2-trifluoroethyl)amino)propan-2-yl)-4-((Z)-1,4,4,4-tetrafluoro-3-(3,4,5-trichlorophenyl)but-1-en-1-yl)-1-naphthamide]: the pest or weed control at 50 µg/cm2 in experiment [1] and in experiment [2] was 50 to 100% each time. Further, the YFM rating entry in experiment [3] is “A (80-100)”.
In the case of `C[C@@H](NC(=O)c1ccc(/C(F)=C/C(c2ccc(Br)c(Br)c2)C(F)(F)F)cc1C(F)(F)F)C(=O)N(C)CC(F)(F)F` (stereo partly drawn) [PF2, 4-((Z)-3-(3,4-Dibromophenyl)-1,4,4,4-tetrafluoro-but-1-en-1-yl)-N—((R)-1-(methyl(2,2,2-trifluoroethyl)amino)-1-oxopropan-2-yl)-2-(trifluoromethyl)benzamide], the pest or weed control at 50 µg/cm2 in experiment [1] and in experiment [2] was 50 to 100% each time. For the same compound, the YFM rating result in experiment [3] was “A (80-100)”.
As for `CN(CC(F)(F)F)C(=O)CNC(=O)c1ccc(/C(F)=C/C(c2ccc(Br)c(Br)c2)C(F)(F)F)cc1C(F)(F)F` (stereo not drawn) [PF4, (Z)-4-(3-(3,4-Dibromophenyl)-1,4,4,4-tetrafluorobut-1-en-1-yl)-N-(2-(methyl(2,2,2-trifluoroethyl)amino]-2-oxoethyl)-2-(trifluoromethyl)benzamide], the pest or weed control at 50 µg/cm2 in experiment [1] and in experiment [2] was 50 to 100% throughout. The YFM rating result in experiment [3] is recorded as “A (80-100)”.
For the compound `C[C@@H](NC(=O)c1ccc(/C(F)=C/C(c2ccc(F)c(Cl)c2)C(F)(F)F)cc1C(F)(F)F)C(=O)N(C)CC(F)(F)F` (stereo partly drawn) [PF8, 4-((Z)-3-(3-Chloro-4-fluorophenyl)-1,4,4,4-tetrafluorobut-1-en-1-yl)-N—((R)-1-(methyl(2,2,2-trifluoroethyl)amino)-1-oxopropan-2-yl)-2-(trifluoromethyl)benzamide], the pest or weed control at 50 µg/cm2 in experiment [1] and in experiment [2] was 50 to 100% in each case. Further, the YFM rating result in experiment [3] is reported as “B (More than 0-Less than 80)”.
As for `CN(CC(F)(F)F)C(=O)C1(NC(=O)c2ccc(/C(F)=C/C(c3ccc(F)c(Cl)c3)C(F)(F)F)cc2C(F)(F)F)CC1` (stereo not drawn) [PF10], the pest or weed control at 50 µg/cm2 in experiment [1] and in experiment [2] was 50 to 100% each time. For the same compound, in experiment [3], the YFM rating result is given as “A (80-100)”.
Consider `Cc1cc(C(/C=C(\F)c2ccc(C(=O)NCC(=O)N(C)CC(F)(F)F)c(C(F)(F)F)c2)C(F)(F)F)cc(Cl)c1Cl` (stereo not drawn) [PF12, (Z)-4-(3-(3,4-Dichloro-5-methylphenyl)-1,4,4,4-tetrafluoro-but-1-en-1-yl)-N-(2-(methyl(2,2,2-trifluoroethyl)amino)-2-oxoethyl)-2-(trifluoromethyl)benzamide], for which the pest or weed control at 50 µg/cm2 in experiment [1] and in experiment [2] was 50 to 100% throughout. For the same compound, the YFM rating entry in experiment [3] was “B (More than 0-Less than 80)”.
Take `Cc1cc(C(/C=C(\F)c2ccc(C(=O)N[C@H](C)C(=O)NCC(F)(F)F)c(C(F)(F)F)c2)C(F)(F)F)cc(Cl)c1Cl` (stereo partly drawn) [PF13]: the pest or weed control at 50 µg/cm2 in experiment [1] and in experiment [2] was 50 to 100% in each case. Moreover, the YFM rating entry in experiment [3] is given as “B (More than 0-Less than 80)”.
In the case of `Cc1cc(C(/C=C(\F)c2ccc(C(=O)N[C@H](C)C(=O)N(C)CC(F)(F)F)c(C(F)(F)F)c2)C(F)(F)F)cc(Cl)c1Cl` (stereo partly drawn) [PF14, 4-((Z)-3-(3,4-Dichloro-5-methylphenyl)-1,4,4,4-tetrafluorobut-1-en-1-yl)-N—((R)-1-(methyl(2,2,2-trifluoroethyl)amino)-1-oxopropan-2-yl)-2-(trifluoromethyl)benzamide], the pest or weed control at 50 µg/cm2 in experiment [1] and in experiment [2] was 50 to 100% in each case. The YFM rating result in experiment [3] is listed as “A (80-100)”.

For the origin of these results see patent publication US10251394B2, “Molecules having pesticidal utility, and intermediates, compositions, and processes, related thereto” (Dow AgroSciences LLC, priority 2016, dated 2019).
